Measured values as given in patent US20040023945A1, “CYCLIC AMP-SPECIFIC PHOSPHODIESTERASE INHIBITORS” (ICOS Corporation, priority 1999, published 2004).

Tested on: human peripheral blood lymphocytes
Test: Lipopolysaccharide-stimulated TNFα release from human peripheral blood lymphocytes
Format: cell-based
Conditions: Homo sapiens, Lymphocyte, LPS-stimulated TNFα release from human PBL; read-out: PBL/TNFα EC50
Protocol: The compounds of structural formula (II) also were tested for an ability to reduce TNFα secretion in human peripheral blood lymphocytes. The ability to reduce TNFα secretion is related to the EC50 values (i.e., the effective concentration of the compound capable of inhibiting 50% of the total TNFα).
To assess the ability of a compound to reduce TNFα secretion in human peripheral blood lymphocytes (PBL), the following tests were performed.
Heparinized blood (approximately 30 mL) drawn from human volunteers was mixed 1:1 with Dulbecco's modified phosphate-buffered saline. This mixture was mixed 1:1 with HISTOPAQUE® and centrifuged at 1,500 rpm at room temperature without braking in the swinging bucket of a Beckman model TJ6 centrifuge. Erythrocytes were centrifuged to the bottom of the tubes, and serum remained at the surface of the tubes. A layer containing lymphocytes sedimented between the serum and HISTOPAQUE® layers, and was removed by aspiration to a fresh tube. The cells were quantified and adjusted to 3×10^6 cells/mL and a 100 μL aliquot is placed into the wells of a 96 well plate. Test compounds and RPMI media (Gibco/BRL Life Sciences) are added to each of the wells 15 minutes prior to addition of bacterial LPS ([…]). The mixture was allowed to incubate for 20 hours at 37° C. in a humidified chamber. The cells then were separated by centrifuging at 800 rpm for 5 minutes at room temperature. An aliquot of 180 μL of supernatant was transferred to a new plate for determination of TNFα concentration. TNFα protein in the cell supernatant fluids was measured using a commercially available enzyme-linked immunosorbent assay (ELISA) (CYTOSCREEN® Immunoassay Kit from Biosource International).
The cell-based assay provided the following results for various pyrrolidine compounds of the present invention. The EC50 values (i.e., effective concentration of the compound capable of inhibiting 50% of the total TNFα) illustrate the ability of the present compounds to inhibit LPS-stimulated TNFα release from human PBL.

SMILES	EC50
CNC(=O)C(=O)N1C[C@@H](c2ccc(OC)c(OC3CCCC3)c2)[C@](C)([C@@H](C)O)C1 [Example 80, 2-[3-((1R)-1-Hydroxyethyl)(3S,4S)-4-(3-cyclopentyloxy-4-methoxyphenyl)-3-methylpyrrolidinyl]-N-methyl-2-oxoacetamide]	272 nM
COc1ccc([C@@H]2CN(C(=O)C(N)=O)C[C@@]2(C)[C@@H](C)O)cc1OCCCOc1ccc(F)cc1 [Example 77, 2-[(3S,4S)-4-{3-[3-(4-Fluorophenoxy)propoxy]-4-methoxyphenyl}-3-((R)-1-hydroxyethyl)-3-methylpyrrolidin-1-yl]-2-oxo-acetamide]	580 nM
COc1ccc([C@@H]2CN(C(=O)C(C)(C)OC(C)=O)C[C@@]2(C)[C@@H](C)O)cc1OC1CCCC1 [Example 70, 2-(3-((1R)-1-Hydroxyethyl)(3S,4S)-4-(3-cyclopentyloxy-4-methoxyphenyl) -3-methylpyrrolidinyl]-1,1-dimethyl-2-oxoethyl acetate]	547 nM
COc1ccc([C@@H]2CN(C(=O)[C@H](N)C(C)C)C[C@@]2(C)[C@@H](C)O)cc1OC1CCCC1 [Example 87, (2R)-1-[3-((1R)-1-Hydroxyethyl)(3S,4S)-4-(3-cyclopentyloxy-4-methoxyphenyl)-3-methylpyrrolidinyl]-2-amino-3-methylbutan-1-one]	934 nM
COc1ccc([C@@H]2CN(c3cccnc3)C[C@@]2(C)[C@@H](C)O)cc1OC1CCCC1 [Example 35, (1R)-1-[(3S,4S)-4-(3-Cyclopentyloxy-4-methoxyphenyl)-3-methyl-1-(3-pyridyl)pyrrolidin-3-yl]ethan-1-ol]	20.3 nM
COc1ccc([C@@H]2CN(c3ccccn3)C[C@@]2(C)[C@@H](C)O)cc1OC1CCCC1 [Example 34, (1R)-1-[(3S,4S)-4-(3-Cyclopentyloxy-4-methoxyphenyl)-3-methyl-1-(2-pyridyl)pyrrolidin-3-yl]ethan-1-ol]	250 nM
COc1ccc([C@@H]2CN(C(=O)C(N)=O)C[C@@]2(C)[C@@H](C)O)cc1OCC#Cc1ccccc1 [Example 75, 2-{(3S,4S)-3-((R)-1-Hydroxyethyl)-4-[4-methoxy-3-(3-phenylprop-2-ynyloxy)-phenyl]-3-methylpyrrolidin-1-yl}-2-oxo-acetamide]	121 nM
COc1ccc([C@@H]2CN(C(=O)C(=O)NC3CCCC3)C[C@@]2(C)[C@@H](C)O)cc1OC1CCCC1 [Example 82, 2-[3-((1R)-1-Hydroxyethyl)(3S,4S)-4-(3-cyclopentyloxy-4-methoxyphenyl)-3-methylpyrrolidinyl]-N-cyclopentyl-2-oxoacetamide]	490 nM
COC(=O)N1C[C@@H](c2ccc(OC)c(OC3CC4CCC3C4)c2)[C@](C)(C(C)O)C1 (stereo partly drawn) [Example 5, trans 4-[3-Exo-(Bicyclo[2.2.1]hept-2-yloxy)-4-methoxyphenyl]-3-(1-hydroxyethyl)-3-methylpyrrolidine-1-carboxylic acid methyl ester]	1550 nM
COc1ccc([C@@H]2CN(C(=O)[C@H](OC(C)=O)C3CCCCC3)C[C@@]2(C)[C@@H](C)O)cc1OC1CCCC1 [Example 90, 1-[3-((1R)-1-Hydroxyethyl)(3S,4S)-4-(3-cyclopentyloxy-4-methoxyphenyl)-3-methylpyrrolidinyl](2R)-2-cyclohexyl-2-acetoxyethan-1-one]	61 nM
CCCC[C@@H](NC(=O)OCc1ccccc1)C(=O)N1C[C@@H](c2ccc(OC)c(OC3CCCC3)c2)[C@](C)([C@@H](C)O)C1 [Example 84, N-{(1R)-2-[3-((1R)-1-Hydroxyethyl)(3S,4S)-4-(3-cyclopentyloxy-4-methoxyphenyl)-3-methylpyrrolidinyl]-1-butyl-2-oxoethyl}(phenylmethoxy)carboxamide]	40 nM
COc1ccc([C@@H]2CN(C(=O)C(N)=O)C[C@@]2(C)[C@@H](C)O)cc1OCC#Cc1ccc(C(F)(F)F)cc1 [Example 76, 2-((3S,4S)-3-((R)-1-Hydroxyethyl)-4-{4-methoxy-3-(3-(4-trifluoromethyl-phenyl)prop-2-ynyloxy]-phenyl}-3-methylpyrrolidin-1-yl)-2-oxo-acetamide]	173 nM
COc1ccc([C@@H]2CN(c3cccnc3)C[C@@]2(C)[C@@H](C)O)cc1OC1Cc2ccccc2C1 [Example 32, (1R)-1-[(3S,4S)-4-(3-Indan-2-yloxy-4-methoxyphenyl)-3-methyl-1-(3-pyridyl)pyrrolidin-3-yl]ethan-1-ol]	801 nM
COC(=O)N1C[C@@H](c2ccc(OC)c(OC3Cc4ccccc4C3)c2)[C@](C)(C(C)O)C1 (mixture of isomers) [Example 4, trans-(±)-3-(1-Hydroxyethyl)-4-[3-(indan-2-yloxy)-4-methoxyphenyl]-3-methylpyrrolidine-1-carboxylic acid methyl ester]	3610 nM

Second part, the compound after the results:

EC50	SMILES
557 nM	COc1ccc([C@@H]2CN(C(=O)C(N)=O)C[C@@]2(C)[C@@H](C)O)cc1OC1CCCC1 [Example 74, 2-[3-((1R)-1-Hydroxyethyl)(3S,4S)-4-(3-cyclopentyloxy-4-methoxyphenyl)-3-methylpyrrolidinyl]-2-oxoacetamide]
267 nM	COc1ccc([C@@H]2CN(C(=O)C(O)c3ccccc3)CC2(C)[C@@H](C)O)cc1OC1CCCC1 (stereo in doubt) [Example 63, 1-((3R)-3-((1R)-1-Hydroxyethyl)-4-(3-cyclopentyloxy-4-methoxyphenyl)-3-methylpyrrolidinyl]-2-hydroxy-2-phenylethan-1-one]
1210 nM	COC(=O)N1C[C@@H](c2ccc(OC)c(OC3CCCC3)c2)[C@](C)(C(C)(C)O)C1 (racemic) [Example 1, (±)-4-(3-Cyclopentyloxy-4-methoxyphenyl)-3-(1-hydroxy-1-methylethyl)-3-methylpyrrolidine-1-carboxylic acid methyl ester]
625 nM	COc1ccc([C@@H]2CN(C(=O)C(=O)N3CCCCC3)C[C@@]2(C)[C@@H](C)O)cc1OC1CCCC1 [Example 81, 1-[3-((1R)-1-Hydroxyethyl)(3S,4S)-4-(3-cyclopentyloxy-4-methoxyphenyl)-3-methylpyrrolidinyl]-2-piperidylethane-1,2-dione]
7.8 nM	CCCC[C@H](N)C(=O)N1C[C@@H](c2ccc(OC)c(OC3CCCC3)c2)[C@](C)([C@@H](C)O)C1 [Example 93, 1-[3-((1R)-1-Hydroxyethyl)(3S,4S)-4-(3-cyclopentyloxy-4-methoxyphenyl)-3-methylpyrrolidinyl](2S)-2-aminohexan-1-one]
860 nM	COc1ccc([C@@H]2CN(C(=O)[C@@H](O)C3CCCCC3)C[C@@]2(C)[C@@H](C)O)cc1OC1CCCC1 [Example 89, 1-[3-((1R)-1-Hydroxyethyl)(3S,4S)-4-(3-cyclopentyloxy-4-methoxyphenyl)-3-methylpyrrolidinyl](2S)-2-cyclohexyl-2-hydroxyethan-1-one]
1900 nM	COc1ccc([C@@H]2CN(C(=O)CO)C[C@@]2(C)C(C)(C)O)cc1OCC1CC1 [Example 2, 1-[4-(S)-(3-Cyclopropylmethoxy-4-methoxyphenyl)-3-(1-hydroxy-1-methylethyl)-3-(S)-methylpyrrolidin-1-yl]-2-hydroxyethanone]
3660 nM	COC(=O)N1C[C@@H](c2ccc(OC)c(OC(C)CCc3ccccc3)c2)[C@](C)(C(C)O)C1 (relative stereo) [Example 6, trans-3-(1-Hydroxyethyl)-4-(4-methoxy-3-(1-methyl-3-phenylpropoxy)phenyl]-3-methylpyrrolidine-1-carboxylic acid methyl ester]
44 nM	COc1ccc([C@@H]2CN(C(=O)[C@H](O)C3CCCCC3)C[C@@]2(C)[C@@H](C)O)cc1OC1CCCC1 [Example 91, (2R)-1-[3-((1R)-1-Hydroxyethyl)(3S,4S)-4-(3-cyclopentyloxy-4-methoxyphenyl)-3-methylpyrrolidinyl]-2-cyclohexyl-2-hydroxyethan-1-one]
1290 nM	COc1ccc([C@@H]2CN(C(=O)C(N)=O)C[C@@]2(C)[C@@H](C)O)cc1OCC1CC1 [Example 78, 2-[(3S,4S)-4-(3-Cyclopropylmethoxy-4-methoxyphenyl)-3-((R)-1-hydroxyethyl)-3-methylpyrrolidin-1-yl]-2-oxo-acetamide]
2370 nM	COc1ccc([C@@H]2CN(C(=O)C(N)=O)C[C@@]2(C)[C@@H](C)O)cc1OC1Cc2ccccc2C1 [Example 79, 2-{(3S,4S)-3-((R)-1-Hydroxyethyl)-4-[3-(indan-2-yloxy)-4-methoxyphenyl]-3-methylpyrrolidin-1-yl}-2-oxo-acetamide]
36.2 nM	COc1ccc([C@@H]2CN(C(=O)COCc3ccccc3)C[C@@]2(C)[C@@H](C)O)cc1OC1CCCC1 [Example 64, 1-[3-((1R)-1-Hydroxyethyl)(3S,4S)-4-(3-cyclopentyloxy-4-methoxyphenyl)-3-methylpyrrolidinyl]-2-(phenylmethoxy)ethan-1-one]
